From patent US5750562A (priority 1995, dated 1998)

What was measured:
[1] = system: MCF7 (human breast); assay: Cytotoxicity, MCF7 (human breast); type: cell-based; settings: exposition time 72 h, RPMI 1640 + 20 mM HEPES + 2 mM L-glutamine
Description: (§1) IC50 s of compounds 10, 11and paclitaxel on 6 human
(§2) Standard conditions: basal medium RPMI 1640 + 20 mM HEPES + 2 mM

[2] = system: HT-29 (human colon); assay: Cytotoxicity, HT-29 (human colon); type: cell-based; settings: exposition time 72 h, RPMI 1640 + 20 mM HEPES + 2 mM L-glutamine
Description: as §1, §2

[3] = system: tumours; assay: Anti-tumoral activity (general statement); settings: in words, among the compounds of formula 1
[4] = system: L1210 (murine leukemia); assay: Cytotoxicity, L1210 (murine leukemia); type: cell-based; settings: Mus musculus, exposition time 48 h, RPMI 1640 + 20 mM HEPES + 2 mM L-glutamine
[5] = system: A549 (human NSCLC); assay: Cytotoxicity, A549 (human NSCLC); type: cell-based; settings: exposition time 72 h, RPMI 1640 + 20 mM HEPES + 2 mM L-glutamine
Description: as §1, §2

[6] = system: A121 (human ovarian); assay: Cytotoxicity, A121 (human ovarian); type: cell-based; settings: exposition time 72 h, RPMI 1640 + 20 mM HEPES + 2 mM L-glutamine
Description: as §1, §2

[7] = Cardiotoxic activity; settings: in words, compared with taxol and its known derivatives
[8] = system: human tumours; settings: background art, cited from earlier work
[9] = system: MCF7-ADR (resistant); assay: cells; type: cell-based; settings: Homo sapiens, NCI/ADR-RES, 72 h

Row | Structure (SMILES) | IC50 [1] [nM] | IC50 [2] [nM] | activity [3] | IC50 [4] [nM] | IC50 [5] [nM] | IC50 [6] [nM] | cardiotoxic activity [7] | anticancerogenic activity ([8]; different forms of human tumours) | resistance induction [8] | side-effects in clinical use [8] | IC50 [9] [nM]
1 | CC(=O)O[C@@]12CO[C@@H]1C[C@H](O)[C@@]1(C)C(=O)C(=O)C3=C(C)[C@@H](OC(=O)[C@H](O)[C@H](CC(C)C)NC(=O)OC(C)(C)C)[C@@H]4OC(=O)O[C@]4([C@@H](OC(=O)c4ccccc4)[C@H]21)C3(C)C [Compound 11, 13=[(2R,3S)-3-ter-butoxycarbonylamino-2-hydroxy-3-isobutyl-propanoyl]-10-dehydro-10-deacetyl-14β-hydroxy-baccatine III 1,14-carbonate] | 0.8 ± 0.2 | 0.6 ± 0.4 | particularly active | 2 ± 0.1 | 2.1 ± 0.3 | 1.6 ± 0.2 | – | – | – | – | –
2 | CCCCCC(=O)N[C@@H](CC(C)C)[C@@H](O)C(=O)O[C@@H]1C(C)=C2C(=O)C(=O)[C@@]3(C)[C@H]([C@H](OC(=O)c4ccccc4)[C@@]4(OC(=O)O[C@@H]14)C2(C)C)[C@]1(OC(C)=O)CO[C@@H]1C[C@@H]3O [Compound 12, 13-[(2R,3S)-3-caproylamino-2-hydroxy-3-isobutyl-propanoyl]-10-dehydro-10-deacetyl 14β-hydroxy-baccatine III 1,14-carbonate] | – | – | particularly active | – | – | – | – | – | – | – | –
3 | CC(=O)O[C@H]1C(=O)[C@@]2(C)[C@H]([C@H](OC(=O)c3ccccc3)[C@]3(O)C[C@H](OC(=O)[C@H](O)[C@@H](NC(=O)c4ccccc4)c4ccccc4)C(C)=C1C3(C)C)[C@]1(OC(C)=O)CO[C@@H]1C[C@@H]2O [Paclitaxel, reference compound] | 4.3 ± 0.1 | 6 ± 0.6 | – | 7 ± 3 | 5.4 ± 0.5 | 3.7 ± 0.3 | contrary to taxol | anticancerogenic activity on different forms of human tumours | induces resistance quickly | serious side-effects | 395 ± 8.7
4 | CC(=O)O[C@@]12CO[C@@H]1C[C@H](O)[C@@]1(C)C(=O)C(=O)C3=C(C)[C@@H](OC(=O)[C@H](O)[C@H](CC(C)C)NC(=O)OC(C)(C)C)C[C@@](O)([C@@H](OC(=O)c4ccccc4)[C@H]21)C3(C)C [Compound 10, 13-[(2R,3S)-3-ter-butoxycarbonylamino-2-hydroxy3-isobutyl-propanoyl]-10-deacetyl-10-dehydro-baccatine III] | 1.2 ± 0.2 | 0.4 ± 0.1 | particularly active | 0.6 ± 0.1 | 1.9 ± 0.3 | 0.8 ± 0.3 | – | – | – | – | –
